Measurements taken from US10703760B2, “Morphic forms of marizomib and uses thereof” (Celgene International II Sàrl, priority 2016, dated 2020).

Key:
Assay type in all cases: physicochemical
[1] = Hydrolysis of marizomib / chemical purity by HPLC after solvent exposure; conditions: starting material 98.2%
Description: Purity analysis was performed on an Agilent HP1100 series system equipped with a diode array detector and using ChemStation software vB.04.03 using the method set forth in Table-5.
30 mg of Sample 1 was suspended in the given solvent shown in Table 6 (1 ml) at room temperature. The samples were matured between 50° C. and room temperature heat-cool cycles (8 h per cycle) for 96 h. The solids were filtered, air dried and analyzed by XRPD.

[2] = Polymorphism screening of Sample 1 (solubility observations, maturation, cooling, XRPD); design: key to Obs. at r.t. 10 vol. / Obs. at r.t. 20 vol. / Obs. at r.t. 30 vol. / Obs. at r.t. 40 vol. / Obs. at r.t. 50 vol. / Maturation 50° C./r.t. / Cooling at 5° C.: ✓ = Soluble; X = Insoluble,; conditions: for Maturation 50° C./r.t.: heat-cool cycles 24 h; for Cooling at 5° C.: held at 5° C. for 48 h
Description: Polymorphism studies on marizomib were carried out in different solvents and conditions to understand the polymorphic behavior of the free form. Marizomib (Sample 1, 30 mg) was dissolved or suspended in the given solvent at room temperature. Solvent was added until the material dissolved or up to a maximum of 50 volumes. The suspensions were matured between 50° C. and room temperature heat-cool cycles (8 h per cycle) for 24 h. The solutions were cooled to and held at 5° C. for 48 h. If no solid was obtained then the solutions were allowed to evaporate slowly at room temperature. All the recovered solids were analyzed by XRPD.

[3] = Variable temperature XRPD
Description: Samples run under non-ambient conditions were mounted on a silicon wafer with heat-conducting compound. The sample was then heated to the appropriate temperature at 20° C./min and subsequently held isothermally for 1 minute before data collection was initiated.

[4] = Thermogravimetric analysis (TGA); conditions: heated at 10° C./min under nitrogen
Description: TGA data were collected on a TA Instruments Q500 TGA, equipped with a 16-position auto-sampler. The instrument was temperature calibrated using certified Alumel™ and Nickel. Typically 5-10 mg of each sample was loaded onto a pre-tared aluminum DSC pan and heated at 10° C./min from ambient temperature to 350° C. A nitrogen purge at 60 ml/min was maintained over the sample.
TG analyses were performed using a TA Instruments Q5000 IR thermogravimetric analyzer. Temperature calibration was performed using nickel and Alumel™. Each sample was placed in an aluminum pan. The sample was hermetically sealed, the lid pierced, then inserted into the TG furnace. The furnace was heated under nitrogen.

With `C[C@@]12OC(=O)[C@]1([C@@H](O)[C@@H]1C=CCCC1)NC(=O)[C@@H]2CCCl` [Sample 1, marizomib] the “Chemical purity (HPLC) of solid isolated from polymorphism screen” value ([1]; isolated from EtOAc experiment) was 96.8%, the “Chemical purity (HPLC) of solid isolated from polymorphism screen” value ([1]; isolated from EtOH experiment) was 97.4% and the “Obs. at r.t. 10 vol.” value ([2]; 2-Propanol) was “X”. For the same molecule, the “Obs. at r.t. 20 vol.” value ([2]; 2-Propanol) was “X”, the “Obs. at r.t. 30 vol.” value ([2]; 2-Propanol) was “X” and the “Obs. at r.t. 40 vol.” value ([2]; 2-Propanol) was “X”. For the same molecule, the “Obs. at r.t. 50 vol.” value ([2]; 2-Propanol) was “X”, the “Maturation 50° C./r.t.” value ([2]; 2-Propanol) was “X” and the “Morphic form obtained from polymorphism screen (XRPD)” value ([2]; 20 solvents, maturation, cooling, evaporation) was “Form I was the only form obtained”. The “Obs. at r.t. 10 vol.” value ([2]; Acetone) was “X”, the “Obs. at r.t. 20 vol.” value ([2]; Acetone) was “X” and the “Obs. at r.t. 30 vol.” value ([2]; Acetone) was “X”. The “Obs. at r.t. 40 vol.” value ([2]; Acetone) was “X”, the “Obs. at r.t. 50 vol.” value ([2]; Acetone) was “X” and the “Maturation 50° C./r.t.” value ([2]; Acetone) was “✓”. The “Cooling at 5° C.” value ([2]; Acetone) was “✓”, the “Obs. at r.t. 10 vol.” value ([2]; Acetonitrile) was “X” and the “Obs. at r.t. 20 vol.” value ([2]; Acetonitrile) was “X”. The “Obs. at r.t. 30 vol.” value ([2]; Acetonitrile) was “X”, the “Obs. at r.t. 40 vol.” value ([2]; Acetonitrile) was “X” and the “Obs. at r.t. 50 vol.” value ([2]; Acetonitrile) was “X”. The “Maturation 50° C./r.t.” value ([2]; Acetonitrile) was “X”, the “Obs. at r.t. 10 vol.” value ([2]; Anisole) was “X” and the “Obs. at r.t. 20 vol.” value ([2]; Anisole) was “X”. The “Obs. at r.t. 30 vol.” value ([2]; Anisole) was “X”, the “Obs. at r.t. 40 vol.” value ([2]; Anisole) was “X” and the “Obs. at r.t. 50 vol.” value ([2]; Anisole) was “X”. The “Maturation 50° C./r.t.” value ([2]; Anisole) was “X”, the “Obs. at r.t. 10 vol.” value ([2]; Chloroform) was “X” and the “Obs. at r.t. 20 vol.” value ([2]; Chloroform) was “✓”. For the same molecule, the “Cooling at 5° C.” value ([2]; Chloroform) was “✓”, the “Obs. at r.t. 10 vol.” value ([2]; Cumene) was “X” and the “Obs. at r.t. 20 vol.” value ([2]; Cumene) was “X”. For the same molecule, the “Obs. at r.t. 30 vol.” value ([2]; Cumene) was “X”, the “Obs. at r.t. 40 vol.” value ([2]; Cumene) was “X” and the “Obs. at r.t. 50 vol.” value ([2]; Cumene) was “X”. The “Maturation 50° C./r.t.” value ([2]; Cumene) was “X”, the “Obs. at r.t. 10 vol.” value ([2]; DMA) was “X” and the “Obs. at r.t. 20 vol.” value ([2]; DMA) was “✓”. For the same molecule, the “Cooling at 5° C.” value ([2]; DMA) was “✓”, the “Obs. at r.t. 10 vol.” value ([2]; DMF) was “X” and the “Obs. at r.t. 20 vol.” value ([2]; DMF) was “✓”. For the same molecule, the “Cooling at 5° C.” value ([2]; DMF) was “✓”, the “Obs. at r.t. 10 vol.” value ([2]; Dichloromethane) was “X” and the “Obs. at r.t. 20 vol.” value ([2]; Dichloromethane) was “X”. The “Obs. at r.t. 30 vol.” value ([2]; Dichloromethane) was “X”, the “Obs. at r.t. 40 vol.” value ([2]; Dichloromethane) was “X” and the “Obs. at r.t. 50 vol.” value ([2]; Dichloromethane) was “X”. For the same molecule, the “Maturation 50° C./r.t.” value ([2]; Dichloromethane) was “X”, the “Obs. at r.t. 10 vol.” value ([2]; Dimethyl sulfoxide) was “X” and the “Obs. at r.t. 20 vol.” value ([2]; Dimethyl sulfoxide) was “X”. For the same molecule, the “Obs. at r.t. 30 vol.” value ([2]; Dimethyl sulfoxide) was “X”, the “Obs. at r.t. 40 vol.” value ([2]; Dimethyl sulfoxide) was “X” and the “Obs. at r.t. 50 vol.” value ([2]; Dimethyl sulfoxide) was “X”. The “Maturation 50° C./r.t.” value ([2]; Dimethyl sulfoxide) was “✓”, the “Cooling at 5° C.” value ([2]; Dimethyl sulfoxide) was “✓” and the “Obs. at r.t. 10 vol.” value ([2]; Ethanol) was “X”. For the same molecule, the “Obs. at r.t. 20 vol.” value ([2]; Ethanol) was “X”, the “Obs. at r.t. 30 vol.” value ([2]; Ethanol) was “X” and the “Obs. at r.t. 40 vol.” value ([2]; Ethanol) was “X”. The “Obs. at r.t. 50 vol.” value ([2]; Ethanol) was “X”, the “Maturation 50° C./r.t.” value ([2]; Ethanol) was “X” and the “Obs. at r.t. 10 vol.” value ([2]; Ethyl acetate) was “X”. For the same molecule, the “Obs. at r.t. 20 vol.” value ([2]; Ethyl acetate) was “X”, the “Obs. at r.t. 30 vol.” value ([2]; Ethyl acetate) was “X” and the “Obs. at r.t. 40 vol.” value ([2]; Ethyl acetate) was “X”. The “Obs. at r.t. 50 vol.” value ([2]; Ethyl acetate) was “X”, the “Maturation 50° C./r.t.” value ([2]; Ethyl acetate) was “✓” and the “Cooling at 5° C.” value ([2]; Ethyl acetate) was “✓”. The “Obs. at r.t. 10 vol.” value ([2]; Isopropyl acetate) was “X”, the “Obs. at r.t. 20 vol.” value ([2]; Isopropyl acetate) was “X” and the “Obs. at r.t. 30 vol.” value ([2]; Isopropyl acetate) was “X”. The “Obs. at r.t. 40 vol.” value ([2]; Isopropyl acetate) was “X”, the “Obs. at r.t. 50 vol.” value ([2]; Isopropyl acetate) was “X” and the “Maturation 50° C./r.t.” value ([2]; Isopropyl acetate) was “X”. The “Obs. at r.t. 10 vol.” value ([2]; MEK) was “X”, the “Obs. at r.t. 20 vol.” value ([2]; MEK) was “X” and the “Obs. at r.t. 30 vol.” value ([2]; MEK) was “X”. For the same molecule, the “Obs. at r.t. 40 vol.” value ([2]; MEK) was “X”, the “Obs. at r.t. 50 vol.” value ([2]; MEK) was “X” and the “Maturation 50° C./r.t.” value ([2]; MEK) was “✓”. For the same molecule, the “Cooling at 5° C.” value ([2]; MEK) was “✓”, the “Obs. at r.t. 10 vol.” value ([2]; MIBK) was “X” and the “Obs. at r.t. 20 vol.” value ([2]; MIBK) was “X”. For the same molecule, the “Obs. at r.t. 30 vol.” value ([2]; MIBK) was “X”, the “Obs. at r.t. 40 vol.” value ([2]; MIBK) was “X” and the “Obs. at r.t. 50 vol.” value ([2]; MIBK) was “X”. The “Maturation 50° C./r.t.” value ([2]; MIBK) was “X”, the “Obs. at r.t. 10 vol.” value ([2]; Nitromethane) was “X” and the “Obs. at r.t. 20 vol.” value ([2]; Nitromethane) was “X”. The “Obs. at r.t. 30 vol.” value ([2]; Nitromethane) was “X”, the “Obs. at r.t. 40 vol.” value ([2]; Nitromethane) was “X” and the “Obs. at r.t. 50 vol.” value ([2]; Nitromethane) was “X”. For the same molecule, the “Maturation 50° C./r.t.” value ([2]; Nitromethane) was “X”, the “Obs. at r.t. 10 vol.” value ([2]; Tetrahydrofuran) was “X” and the “Obs. at r.t. 20 vol.” value ([2]; Tetrahydrofuran) was “✓”. For the same molecule, the “Cooling at 5° C.” value ([2]; Tetrahydrofuran) was “✓”, the “Obs. at r.t. 10 vol.” value ([2]; Toluene) was “X” and the “Obs. at r.t. 20 vol.” value ([2]; Toluene) was “X”. The “Obs. at r.t. 30 vol.” value ([2]; Toluene) was “X”, the “Obs. at r.t. 40 vol.” value ([2]; Toluene) was “X” and the “Obs. at r.t. 50 vol.” value ([2]; Toluene) was “X”. The “Maturation 50° C./r.t.” value ([2]; Toluene) was “X”, the “Obs. at r.t. 10 vol.” value ([2]; n-Heptane) was “X” and the “Obs. at r.t. 20 vol.” value ([2]; n-Heptane) was “X”. For the same molecule, the “Obs. at r.t. 30 vol.” value ([2]; n-Heptane) was “X”, the “Obs. at r.t. 40 vol.” value ([2]; n-Heptane) was “X” and the “Obs. at r.t. 50 vol.” value ([2]; n-Heptane) was “X”. For the same molecule, the “Maturation 50° C./r.t.” value ([2]; n-Heptane) was “X”, the “Obs. at r.t. 10 vol.” value ([2]; tert-Butylmethyl ether) was “X” and the “Obs. at r.t. 20 vol.” value ([2]; tert-Butylmethyl ether) was “X”. The “Obs. at r.t. 30 vol.” value ([2]; tert-Butylmethyl ether) was “X”, the “Obs. at r.t. 40 vol.” value ([2]; tert-Butylmethyl ether) was “X” and the “Obs. at r.t. 50 vol.” value ([2]; tert-Butylmethyl ether) was “X”. For the same molecule, the “Maturation 50° C./r.t.” value ([2]; tert-Butylmethyl ether) was “X”, the “Morphic form on heating (variable temperature XRPD)” value ([3]; 25° C. to 160° C.) was “remained as Form I” and the “Discoloration (white to yellow) temperature; melting and/or degradation after about five minutes hold” value ([3]; during variable temperature XRPD) was “about 160 °C”.

In the case of `C[C@@]12OC(=O)[C@]1([C@@H](O)[C@@H]1C=CCCC1)NC(=O)[C@@H]2CCCl` [Sample 3, marizomib], the “TGA: no weight loss observed until (weight loss can be due to sample degradation)” value [4] is reported as “about 175 °C”.
